Assay results taken from ChEMBL document CHEMBL2150902, “Novel AI-2 quorum sensing inhibitors in Vibrio harveyi identified through structure-based virtual screening” (Bioorg Med Chem Lett, 2012).

Tests used:
[1] = Inhibition of LuxP/LuxQ mediated AI2-dependent quorum sensing in Vibrio harveyi MM32 incubated for 4 to 6 hrs measured every 30 mins by luminescence assay
Vibrio harveyi = assay: Growth inhibition of Vibrio harveyi MM32 by spectrophotometry; assay type: organism-based; conditions: in vivo

SMILES	IC50 [1] [µM]	growth inhibition (GI) (Vibrio harveyi)
C=CCOC(=O)C1=CS(=O)(=O)c2ccccc21	3.06	Toxic
Cn1cnnc1SCC(=O)Nc1nc2ccccc2s1	5.51	Non-toxic
CSC1=CS(=O)(=O)c2ccccc21	41	Toxic
Cc1cc(=O)n2nc(N)c(/N=N/c3ccccc3)c2[nH]1	19.8	Toxic

The next lines start with results.

IC50 [1] [µM]	SMILES	growth inhibition (GI) (Vibrio harveyi)
14.8	Fc1ccccc1-c1ccc(CNCc2ccco2)o1	Toxic
3.42	CSc1nccc(Oc2ccccc2Cl)n1	Non-toxic
40.1	O=C(O)c1ccc(-c2c(Cl)cc([N+](=O)[O-])cc2Cl)o1	Non-toxic
